In patent US12286452B2, “Amphiphilic aminoglycoside connexin hemichannel inhibitors” (Texas Tech University System, priority 2018, dated 2025):
Like-named read-outs stand apart in the source and are kept apart here.

Columns and labels:
human Cx26 HCs = target: T1, human Cx26 HCs (Homo sapiens, UniProt P29033); assay: Cx26-dependent growth complementation assay in E. coli LB2003; type: cell-based; conditions: for IC50: read-out: Cx26 IC50
T1 construct: expressed in transfected cells; host or cells: E. coli LB2003 (carrying pREP4), transformed with pQE-Cx26, IPTG-induced
Procedure: These derivatives were prepared by sequential benzylation and methylation followed by reduction of azido groups or hydrogenolysis of the Bn. […] Connexin HC inhibition was conducted using a bacteria-based assay of HC function^39. In this assay, Cx26 HCs are expressed in E. coli LB2003 cells, which lack three major K^+ uptake systems (Kdp, Kup and Trk), and as a result they cannot grow in low-[K^+] media^39-41. However, growth of this E. coli strain in low-[K^+] medium can be rescued by expression of K^+-permeable channels such as connexin HCs^39, 42-43. Under the conditions of the assay (LB2003 cells expressing HCs and grown in low-K^+ medium), inhibition of the HCs reduces or abolishes growth^39, 42-43. This is a simple assay where bacterial growth in multi-well plates can be followed by measuring the absorbance at 600 nm (OD600)^29.
LB2003 cells generously provided by Dr. E. P. Bakker (Osnabruk University, Osnabruk, Germany) were transformed with the plasmid pQE-Cx26 (human Cx26 into pQE60) and pREP4. […] LB2003 cells cannot grow in low-[K^+] media because of insufficient K^+ uptake for growth due to the knockout of three key K^+ transporters (Atrk, Akup, Akdp strain)^2-4. Details and validation of the growth complementation assay have been published recently^2. In brief, competent LB2003 containing the pREP4 plasmid were transformed with pQE-Cx26. These cells were grown overnight in Luria-Bertani medium (BD, Franklin Lakes, NJ, USA) supplemented with 100 mM KCl (to allow growth) and 0.4 mg/mL ampicillin, and then washed four times with NLM (see below), to remove residual K^+ from the Luria-Bertani medium. The washed cells were resuspended in complementation growth medium to an OD600 of 0.2. NLM contained 46 mM Na2HPO4, 23 mM NaH2PO4, 8 mM (NH4)2SO4, 0.4 mM MgSO4, 0.012 mM FeSO4, 1 mM sodium citrate, 44 mM glucose and 0.006 mM thiamine hydrochloride, pH 7.0. KLM had the same composition that NLM except for the equimolar replacement of Na^+ with K^+. For growth complementation we used NLM+4 mM KCl, and Cx26 expression was induced with 0.5 mM IPTG at the time of dilution to OD600=0.2. For the assay, the cells were seeded in 96-well plates and were incubated at 30° C., with shaking at 500 rpm. OD600 was measured after 18-h incubation in a plate reader. The initial OD600=0.2 was subtracted for growth calculations. Data are presented as means±SEM. Statistically significant differences were calculated by the Student t-test for unpaired data. Data were obtained from at least 3 independent experiments, with 3 repeats per experiment.

Cx43 HCs = target: T2, Cx43 HCs (Homo sapiens, UniProt P17302); assay: Cx43-dependent growth complementation assay in E. coli LB2003; type: cell-based; conditions: for inhibition at 15 µM / Cx43 inhibition (%): 15 μM; for Cx43/Cx26 Selectivity: IC50 Cx26/IC50 Cx43; for IC50: read-out: Cx43 IC50
T2 construct: expressed in transfected cells
T2 sequence (P17302 whole entry): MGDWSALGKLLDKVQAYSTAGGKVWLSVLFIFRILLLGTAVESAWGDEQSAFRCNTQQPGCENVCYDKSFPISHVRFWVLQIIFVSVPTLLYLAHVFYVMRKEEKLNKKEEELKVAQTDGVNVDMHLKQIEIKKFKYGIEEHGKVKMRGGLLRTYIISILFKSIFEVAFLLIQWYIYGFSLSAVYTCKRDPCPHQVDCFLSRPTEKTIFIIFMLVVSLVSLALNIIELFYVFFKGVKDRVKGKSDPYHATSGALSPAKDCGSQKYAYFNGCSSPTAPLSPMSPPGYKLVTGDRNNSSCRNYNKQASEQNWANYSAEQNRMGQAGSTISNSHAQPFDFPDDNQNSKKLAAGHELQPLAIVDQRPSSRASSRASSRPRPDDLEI

[1] = K members, the 21st table, read-out: Cx43 % inhibition
[2] = Table 3, read-out: Cx243% inhibition
[3] = Table 6, read-out: Cx43 (% inhibition)
[4] = the 15th table, second Cx43 column, sub-head and unit not given
[5] = the 15th table, sub-head and unit inferred
[6] = the 15th table, Cx26, sub-head and unit not given
[7] = the 15th table, Cx26, unit not given (cf. the 22nd table)
[8] = KI members, the 23rd table, read-out: Cx43 % inhibition

SMILES	inhibition at 15 µM (human Cx26 HCs; Table 3) [%]	inhibition at 50 µM (human Cx26 HCs; Table 3) [%]	inhibition at 15 µM (Cx43 HCs; [1]) [%]	inhibition at 15 µM (Cx43 HCs; [2]) [%]	inhibition at 50 µM (Cx43 HCs; [1]) [%]	inhibition at 50 µM (Cx43 HCs; [2]) [%]	inhibition at 15 µM (human Cx26 HCs; Table 6) [%]	inhibition at 50 µM (human Cx26 HCs; Table 6) [%]	inhibition at 15 µM (Cx43 HCs; [3]) [%]	inhibition at 50 µM (Cx43 HCs; [3]) [%]	IC50 (Cx43 HCs; Table 7) [µM]	Cx43 Imax (Cx43 HCs; [4])	IC50 (Cx43 HCs; [5]) [µM]	Cx26 Imax (human Cx26 HCs; [6])	IC50 (human Cx26 HCs; [7]) [µM]	inhibition at 15 µM (Cx43 HCs; [8]) [%]	inhibition at 50 µM (Cx43 HCs; [8]) [%]	further results
NCC1O[C@H](OC2C(N)CC(N)C(OC3O[C@H](CNC(=O)c4ccccc4-c4c5ccc(=O)cc-5oc5cc(O)ccc45)C(O)C(N)[C@H]3O)[C@H]2O)C(O)C(O)[C@@H]1O (stereo partly shown) [Compound K40]	37.1 ± 13.5	81 ± 1.7	45.3 ± 2.7	45.3 ± 2.7	55.1 ± 5.8	55.1 ± 5.8												
COc1ccc(OC[C@H]2OC(OC3C(N)CC(N)C(O[C@H]4OC(CN)[C@@H](O)C(O)C4O)[C@@H]3O)[C@H](O)C(N)C2O)cc1 (stereo partly shown) [Compound K81]	15.9 ± 4.2	36.5 ± 4.7	20 ± 7.4	20 ± 7.4	34.8 ± 7.8	34.8 ± 7.8	15.9 ± 4.2	36.5 ± 4.7	20 ± 7.4	34.8 ± 7.8								
Cc1ccc(OC[C@H]2OC(OC3C(N)CC(N)C(O[C@H]4OC(CN)[C@@H](O)C(O)C4O)[C@@H]3O)[C@H](O)C(N)C2O)cc1 (stereo partly shown) [Compound K82]	19.3 ± 2.2	28.2 ± 4.5	58.4 ± 10.6		71 ± 14.1		19.3 ± 2.2	28.2 ± 4.5	> 50	76.8 ± 5.8	6.2 ± 1.4	91.1 ± 11.5	7.1 ± 1.4					IC50 (human Cx26 HCs; Table 7): 49.4 ± 9.3 µM; Cx43 inhibition (%) (Cx43 HCs; Table 6, listed as 8b): 63.8 ± 6.8%; Cx43/Cx26 Selectivity (Cx43 HCs; Table 7, listed as 8b): 7.97; Cx43 Imax (Cx43 HCs; the 22nd table): 91.1 ± 11.5%; IC50 (Cx43 HCs; the 22nd table): 7.1 ± 1.4 µM; Cx43 Imax (Cx43 HCs; the 24th table): 91.1 ± 11.5%; IC50 (Cx43 HCs; the 24th table): 7.1 ± 1.4 µM
NCC1O[C@H](OC2C(N)CC(N)C(OC3O[C@H](COc4ccc(Cl)cc4)C(O)C(N)[C@H]3O)[C@H]2O)C(O)C(O)[C@@H]1O (stereo partly shown) [Compound K84]	44.4 ± 7	69.5 ± 4.5	45.8 ± 6.4		76.7 ± 7.7		44.4 ± 7	69.5 ± 4.5	> 50	68.3 ± 4.6	8.9 ± 1.6	80.6 ± 6.0	8.9 ± 1.6	95.9 ± 10.9	17.2 ± 3.2			Cx26 Imax (human Cx26 HCs; the 22nd table): 95.9 ± 10.9%; Cx26 Imax (human Cx26 HCs; the 24th table): 95.9 ± 10.9%; Cx43 inhibition (%) (Cx43 HCs; Table 6, listed as 8d): 50.3 ± 1.0%; Cx43/Cx26 Selectivity (Cx43 HCs; Table 7): 1.93; Cx43 Imax (Cx43 HCs; the 22nd table): 80.6 ± 6.0%; IC50 (Cx43 HCs; the 22nd table): 8.9 ± 1.6 µM; Cx43 Imax (Cx43 HCs; the 24th table): 80.6 ± 6.0%; IC50 (Cx43 HCs; the 24th table): 8.9 ± 1.6 µM
CCCCCCCC(=O)NCC1O[C@H](OC2C(N)CC(N)C(OC3O[C@H](CO)C(O)C(N)[C@H]3O)[C@H]2O)C(O)C(O)[C@@H]1O (stereo partly shown) [KI02]	14 ± 2.1	25.2 ± 2.3		17 ± 5.2		37.2 ± 7.6	14 ± 2.1	25.2 ± 2.3	17 ± 5.2	37.2 ± 7.6						17 ± 5.2	37.2 ± 7.6	
CCCCCCCCCC(=O)NCC1O[C@H](OC2C(N)CC(N)C(OC3O[C@H](CO)C(O)C(N)[C@H]3O)[C@H]2O)C(O)C(O)[C@@H]1O (stereo partly shown) [KI03]	16.1 ± 3.2	33.6 ± 3.8		44.4 ± 5.3		53.5 ± 1.9	16.1 ± 3.2	33.6 ± 3.8	44.4 ± 5.3	53.5 ± 1.9						44.4 ± 5.3	53.5 ± 1.9	
CCCCCCCCCCCC(=O)NCC1O[C@H](OC2C(N)CC(N)C(OC3O[C@H](CO)C(O)C(N)[C@H]3O)[C@H]2O)C(O)C(O)[C@@H]1O (stereo partly shown) [KI04]	16.4 ± 2.3	56.2 ± 6.8					16.4 ± 2.3	56.2 ± 6.8	> 50	70.9 ± 2.3	9.7 ± 1.8	82.2 ± 5.9	9.7 ± 1.8	118.0 ± 7.6	66.7 ± 6.9	43.9 ± 4.3	58.2 ± 3.9	Cx43 inhibition (%) (Cx43 HCs; Table 6, listed as 4i): 53.6 ± 4.6%; Cx43/Cx26 Selectivity (Cx43 HCs; Table 7, listed as 4i): 6.88
NC1CC(N)C(O[C@H]2OC(CNC(=O)c3cc(-c4ccccc4)nc4ccccc34)[C@@H](O)C(O)C2O)[C@H](O)C1OC1O[C@H](CO)C(O)C(N)[C@H]1O (stereo partly shown) [KI08]	8.8 ± 2	22.8 ± 2.2		25.5 ± 7.1		51 ± 2.5	8 ± 2	22.8 ± 2.2	25.5 ± 7.1	51 ± 2.5						25.5 ± 7.1	51 ± 2.5	
NC1CC(N)C(O[C@H]2OC(CNC(=O)CCCc3ccc4ccc5cccc6ccc3c4c56)[C@@H](O)C(O)C2O)[C@H](O)C1OC1O[C@H](CO)C(O)C(N)[C@H]1O (stereo partly shown) [KI09]	36.9 ± 3.9	79.2 ± 7.5					36.9 ± 3.9	79.2 ± 7.5	> 50	69.6 ± 7.5	8.6 ± 1	80.2 ± 7.0	8.6 ± 3	95.3 ± 3.5	18.6 ± 2.1	43 ± 10.7	56.8 ± 11	Cx43 inhibition (%) (Cx43 HCs; Table 6, listed as 4e): 52.2 ± 8.8%; Cx43/Cx26 Selectivity (Cx43 HCs; Table 7): 2,16
